{
  "source": "patent US20110130425A1",
  "about": "“Use of H3 Histaminergic Agonists for the Treatment of Addiction to Drugs of Abuse” (priority 2009, published 2011)",
  "key": {"[1]": {"test_system": "reinforcement produced by cocaine", "experiment": "Reinforcement phase: cocaine self-administration dose/response", "type": "in vivo, rat", "conditions": "L-histidine 500 mg/kg single dose one hour before reinforcement; even at 0.03 mg/kg cocaine; rats"}, "alcohol seeking behavior": {"test_system": "alcohol seeking behavior", "experiment": "Relapse into seeking alcohol self-administration (reinstatement by alcohol or foot-shock stress)", "type": "in vivo, Sprague-Dawley rat", "conditions": "L-histidine 1 g/kg orally, rats", "experimental": "Fourteen male Sprague-Dawley rats obtained from Charles-River weighing 200 g at the beginning of the protocol are used. Rats are water-deprived for the few hours before the first overnight session. Rats are placed in an operant chamber (Panlab) with two levers. Pressing the “active” lever provides access to 0.1 ml of a 20% sucrose solution under a continuous reinforcement program. A light above the active lever signals availability of the solution in a drinking chamber for 20 seconds.\nThe following daily sessions take 60 minutes and water is provided ad libitum. […] Afterwards, the program is increased to Fixed Ratio 2 (FR2), i.e., two lever presses give access to one reinforcement. Self-administration is maintained next to FR3 and finally to FR5.\nBefore extinction sessions, saline is administered orally (5 ml/kg) to all rats. For extinction training, rats are placed in the same operant chambers but no alcohol access or cue light is contingent on lever press. Once rats decrease lever press to less than 10 presses per hour they are considered ready for reinstatement (relapse) procedures.\nBefore the reinstatement sessions, saline 5 ml/kg or L-histidine 1 g/kg (dissolved in saline and adjusted to pH 5) are administered orally to the rats. […]"}, "alcohol relapse behavior": {"test_system": "alcohol relapse behavior", "experiment": "Alcohol Deprivation Effect (ADE) paradigm", "type": "in vivo, rat", "conditions": "L-histidine; rats", "experimental": "The effects of a H3 histaminergic ligand, such as L-histidine, are tested in our well-established model of relapse-like drinking behavior.\nAlcohol Deprivation Effect (ADE) paradigm: All rats are given continuous access to tap water and to 5%, 10% and 20% (v/v) ethanol solutions in their home cages. Spillage and evaporation is minimized by the use of self-made bottles. All drinking solutions are renewed weekly and the positions of the four bottles are changed to avoid location preferences. After eight weeks of continuous access, ethanol solutions are repeatedly withdrawn for 3-21 days (deprivation phases) every four weeks until the rats become alcohol-dependent (as measured by a sucrose and quinine tests). The effects of a H3 histaminergic ligand are then tested on the expression of the alcohol deprivation effect (=relapse behavior). A second ADE study is initiated 3 months later in order to study the persistence of treatment efficacy.\nPast pharmacological studies in home cage drinking models were hampered by the fact that measurements were performed at 24 hour intervals. Thus the exact temporal profile of drug treatment could not be assessed under home cage drinking conditions and sometimes pharmacological effects became masked by the use of measurements every 24 hours. This problem has now been solved in our lab by the use of a fully-automated drinkometer system. […]"}},
  "data": [
    {"smiles": "N[C@@H](Cc1c[nH]cn1)C(=O)O", "note": "[L-histidine]", "values": [
      {"measurement": "tendency to seek cocaine (self-injections in 2 hours)", "setting": "[1]", "value": "diminished the tendency to seek cocaine"},
      {"measurement": "reinstatement of alcohol seeking behavior caused by stress", "setting": "alcohol seeking behavior; foot-shock stress", "value": "decreases the reinstatement"},
      {"measurement": "reinstatement of alcohol seeking behavior caused by exposure to ethanol", "setting": "alcohol seeking behavior", "value": "decreases the reinstatement"},
      {"measurement": "relapse into alcohol drinking after alcohol deprivation (alcohol deprivation effect)", "setting": "alcohol relapse behavior", "value": "decreases relapse"}
    ]}
  ]
}
